Measurements published in patent US9663495B2 (YUHAN CORPORATION, priority 2013, dated 2017).

Tests used:
male C57BL/6 mice = experiment: Oral Glucose Tolerance Test (OGTT); assay type: in vivo; set-up: concentration or dose not given beside the values; conditions: fasted male C57BL/6 mice, oral administration 30 minutes before oral glucose; AUCglucose 0-120 minutes versus negative control group
Method: The oral glucose tolerance test of the compounds according to the present invention was carried out according to the procedures disclosed in Andrikopoulos S, Blair A R, Deluca N, Fam B C, Proietto J, Am J Physiol Endocrinol Metab. 2008, Vol 295, E1323-1332. Briefly, male C57BL/6 mice at 8 to 9 weeks of age having 20 g to 25 g of body weight (Orient Bio Inc. Korea) were allowed to acclimatize to the surroundings (temperature: 20±2° C., humidity: 40-60%, light/dark cycle: 12 hours) for 1 week. During the acclimatization, the mice were given ad libitum access to feed and water. The mice were fasted from 18 hours before the test, except for allowing free access to water. After measuring the mice′ body weights and blood sugar levels, they were divided into test groups so as to have similar blood sugar levels. The mice were orally administered with a mixture of test compound and the diluent (0.5% solution of MC1500 (Sigma)). At 30 minutes after the administration, the mice were also orally administered with 20% glucose solution in an amount of 0.1 ml per 10 g of body weight. The blood samples were taken from the tail vain at 0 (right before the administration of the glucose solution), 15, 30, 60, 90, and 120 minutes after the administration of the glucose solution; and the blood sugar levels thereof were measured with a blood glucose test meter (GlucoDr. AGM-3000, All Medicus Co. Ltd.). The graph for blood sugar level on time for each test compound was plotted from the respective blood sugar values; and then area under the curve (AUCglucose) was determined. The inhibition rate of blood sugar (%) was calculated from the following formula. Inhibition rate of blood sugar (%)=[(AUCglucose of the negative control group−AUCglucose of the test group)/AUCglucose of the negative control group]×100

GPR119 [1] = molecular target: T1, GPR119 (Homo sapiens, UniProt Q8TDV5); experiment: cAMP Accumulation Assay (GPR119 CRE-bla CHO-K1 cells, LiveBLAzer-FRET B/G); assay type: cell-based; conditions: (Emax of the test compound/Emax of MBX-2982)x100, 5 hours incubation
T1 construct: host or cells: CHO-K1 (GPR119 CRE-bla, doxycycline-induced)
T1 sequence (Q8TDV5 1-335): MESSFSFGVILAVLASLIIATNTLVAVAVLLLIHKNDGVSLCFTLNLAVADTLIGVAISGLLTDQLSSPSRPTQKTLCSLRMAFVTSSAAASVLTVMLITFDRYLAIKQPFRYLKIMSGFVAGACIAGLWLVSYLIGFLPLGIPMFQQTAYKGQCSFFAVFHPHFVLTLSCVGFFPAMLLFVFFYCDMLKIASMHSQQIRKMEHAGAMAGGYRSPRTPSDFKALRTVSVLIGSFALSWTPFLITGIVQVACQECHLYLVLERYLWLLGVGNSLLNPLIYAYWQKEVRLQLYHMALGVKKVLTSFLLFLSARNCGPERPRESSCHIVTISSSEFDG

GPR119 [2] = molecular target: T1, GPR119; experiment: as above; assay type: cell-based; conditions: for EC50: 5 hours incubation; for Emax (Fold): maximum activity, response ratio versus non-treated control group
Method: 32 μl of an assay medium (DMEM supplemented with GlutaMax™ 99%, dialyzed FBS 1%, non-essential amino acid 1 mM, HEPES 25 mM, penicillin 100 U/ml, and streptomycin 100 μg/ml) was added to each well of a 384 black well plate and then the GPR119 CRE-bla CHO-K1 cells (Invitrogen) were seeded in 1×10^4 cells per well. Doxycycline was dissolved in the assay medium in the concentration of 1 μg/ml. The resulting solution (4 μl) was added to each well, which was then incubated in a 5% CO 2 incubator at 37° C. for about 20 to 24 hours. Each test compounds were diluted with the assay medium to prepare 10 samples, which have concentrations ranging from […], respectively. Each samples (8 μl) was added to each well, which was then incubated in a 5% CO2 incubator at 37° C. for 5 hours. In case of the control group, the well was treated with a solution (8 μl) prepared by diluting dimethyl sulfoxide (DMSO) in the assay medium to 1%. The substrate mixture (8 μl) was added to each well, which was then left under darkness at room temperature for 2 hours. The substrate mixture contains the followings: 1 mM LiveBLAzer™-FRET B/G(CCF4-AM) substrate 6 μl, solution B 60 μl, solution C 904 μl, and solution D 30 μl.
Fluorescence intensity was determined under the wavelength conditions of 400 nm/465 nm (excitation/emission) for the blue channel and 400 nm/535 nm (excitation/emission) for the green channel, with the fluorescence microplate reader (SpectraFluor Plus. TECAN). The net activity of each well was calculated by subtracting the average value of the cell-free control group from the value of the unstimulated (i.e., non-treated) control group or the stimulated (i.e., test compound-treated) group at each wavelength. MBX-2982 (Metabolex) was used as a control drug. The response ratio was calculated by dividing the net signal ratio (465 nm/535 nm) of the control drug or the test compound by the net signal ratio (465 nm/535 nm) of the non-treated control group. The relative ratio (R.R) was calculated by dividing the maximum activity [Emax (fold)] of the test compound (i.e., % activity in comparison with the background) by the maximum activity [Emax (fold)] of the control drug (MBX-2982) [Emax (% RR)=(Emax of the test compound/Emax of MBX-2982)×100]. EC50 (half maximal effective concentration) was calculated using the software for statistical analysis “Prism 5.0 (GraphPad)”, based on the values obtained according to concentrations of the test compounds.

| Emax (% RR) (GPR119 [1]) | EC50 (GPR119 [2]) [nM] | Emax (Fold) (GPR119 [2]) | SMILES | Inhibition rate of blood sugar (%) (male C57BL/6 mice) |
| --- | --- | --- | --- | --- |
| 123.9 | 59 | 2.9 | C[C@H]1CN(C(=O)OC(C)(C)C)CCN1c1ncc(-c2ccc(-n3cnn(C)c3=O)c(F)c2)cn1 [Example 1, (S)-tert-butyl 4-(5-(3-fluoro-4-(1-methyl-5-oxo-1H-1,2,4-triazol-4(5H)-yl)phenyl)pyrimidin-2-yl)-3-methylpiperazin-1-carboxylate] | 22.3 |
| 104.5 | 8 | 2.6 | CCc1cnc(N2CCN(c3ncc(-c4ccc(-n5cnn(CCN(CC)CC)c5=O)c(F)c4)cc3C#N)[C@@H](C)C2)nc1 [Example 10, (S)-5-(4-(1-(2-(diethylamino)ethyl)-5-oxo-1H-1,2,4-triazol-4(5H)-yl)-3-fluorophenyl)-2-(4-(5-ethylpyrimidin-2-yl)-2-methylpiperazin-1-yl)nicotinonitrile] | 23.8 |
| 122.7 | 1.3 | 3.5 | CCCn1ncn(-c2ccc(-c3cnc(N4CCC(c5nc(C(C)C)no5)CC4)c(C#N)c3)cc2F)c1=O [Example 62, 5-(3-fluoro-4-(5-oxo-1-propyl-1H-1,2,4-triazol-4(5H)-yl)phenyl)-2-(4-(3-isopropyl-1,2,4-oxadiazol-5-yl)piperidin-1-yl)nicotinonitrile] |  |
| 123.8 | 2.4 | 3.6 | CCn1ncn(-c2ccc(-c3cnc(N4CCC(c5nc(C(C)C)no5)CC4)c(C#N)c3)cc2)c1=O [Example 65, 5-(4-(1-ethyl-5-oxo-1H-1,2,4-triazol-4(5H)-yl)phenyl)-2-(4-(3-isopropyl-1,2,4-oxadiazol-5-yl)piperidin-1-yl)nicotinonitrile] |  |
| 122.1 | 2.5 | 3.1 | CCCn1ncn(-c2ccc(-c3cnc(N4CCC(c5noc(C(C)C)n5)CC4)c(C#N)c3)cc2F)c1=O [Example 66, 5-(3-fluoro-4-(5-oxo-1-propyl-1H-1,2,4-triazol-4(5H)-yl)phenyl)-2-(4-(5-isopropyl-1,2,4-oxadiazol-3-yl)piperidin-1-yl)nicotinonitrile] |  |
| 101.3 | 8.2 | 2.9 | CC(C)n1ncn(-c2ccc(-c3cnc(N4CCC(c5nnc(C(F)(F)F)o5)CC4)c(C#N)c3)cc2)c1=O [Example 73, 5-(4-(1-isopropyl-5-oxo-1H-1,2,4-triazol-4(5H)-yl)phenyl)-2-(4-(5-(trifluoromethyl)-1,3,4-oxadiazol-2-yl)piperidin-1-yl)nicotinonitrile] |  |
| 104.2 | 5.6 | 3.0 | CC(C)n1ncn(-c2ccc(-c3cnc(N4CCC(c5nnc(C(F)(F)F)o5)CC4)c(C#N)c3)cc2F)c1=O [Example 74, 5-(3-fluoro-4-(1-isopropyl-5-oxo-1H-1,2,4-triazol-4(5H)-yl)phenyl)-2-(4-(5-(trifluoromethyl)-1,3,4-oxadiazol-2-yl)piperidin-1-yl)nicotinonitrile] |  |
| 101.8 | 19.6 | 2.9 | COCCn1ncn(-c2ccc(-c3cnc(N4CCC(c5nnc(C(F)(F)F)o5)CC4)c(C#N)c3)cc2F)c1=O [Example 76, 5-(3-fluoro-4-(1-(2-methoxyethyl)-5-oxo-1H-1,2,4-triazol-4(5H)-yl)phenyl)-2-(4-(5-(trifluoromethyl)-1,3,4-oxadiazol-2-yl)piperidin-1-yl)nicotinonitrile] |  |

Further lines, the compound ahead of its results:

| SMILES | Emax (% RR) (GPR119 [1]) | EC50 (GPR119 [2]) [nM] | Emax (Fold) (GPR119 [2]) | Inhibition rate of blood sugar (%) (male C57BL/6 mice) |
| --- | --- | --- | --- | --- |
| CCCn1ncn(-c2ccc(-c3cnc(N4CCN(C(=O)OC(C)(C)C)C[C@@H]4C)c(C#N)c3)cc2F)c1=O [Example 5, (S)-tert-butyl 4-(3-cyano-5-(3-fluoro-4-(5-oxo-1-propyl-1H-1,2,4-triazol-4(5H)-yl)phenyl)pyridin-2-yl)-3-methylpiperazin-1-carboxylate] | 109.1 | 4 | 2.7 | 21.9 |
| CCc1cnc(N2CCN(c3ncc(-c4ccc(-n5cnn(C(C)C)c5=O)c(F)c4)cc3C#N)CC2)nc1 [Example 44, 2-(4-(5-ethylpyrimidin-2-yl)piperazin-1-yl)-5-(3-fluoro-4-(1-isopropyl-5-oxo-1H-1,2,4-triazol-4(5H)-yl)phenyl)nicotinonitrile sulfonate] |  |  |  | 27.0 |
| CCCn1ncn(-c2ccc(-c3ccc(N4CCN(C(=O)OC(C)(C)C)CC4C(F)(F)F)nc3)cc2F)c1=O (centres unmarked) [Example 50, tert-butyl 4-(5-(3-fluoro-4-(5-oxo-1-propyl-1H-1,2,4-triazol-4(5H)-yl)phenyl)pyridin-2-yl)-3-(trifluoromethyl)piperazin-1-carboxylate] |  |  |  | 15.6 |
| CCN(CC)CCn1ncn(-c2ccc(-c3cnc(N4CCC(N(C)C(=O)OC(C)(C)C)CC4)c(C#N)c3)cc2F)c1=O [Example 61, tert-butyl 1-(3-cyano-5-(4-(1-(2-(diethylamino)ethyl)-5-oxo-1H-1,2,4-triazol-4(5H)-yl)-3-fluorophenyl)pyridin-2-yl)piperidin-4-yl(methyl)carbamate] |  |  |  | 18.0 |
| CCN(CC)CCn1ncn(-c2ccc(-c3cnc(N4CCC(c5nc(C(C)C)no5)CC4)c(C#N)c3)cc2F)c1=O [Example 63, 5-(4-(1-(2-(diethylamino)ethyl)-5-oxo-1H-1,2,4-triazol-4(5H)-yl)-3-fluorophenyl)-2-(4-(3-isopropyl-1,2,4-oxadiazol-5-yl)piperidin-1-yl)nicotinonitrile] |  |  |  | 27.7 |
| CC(C)c1noc(C2CCN(c3ncc(-c4ccc(-n5cnn(CN6CCCC6)c5=O)c(F)c4)cc3C#N)CC2)n1 [Example 64, 5-(3-fluoro-4-(5-oxo-1-(pyrrolidin-1-ylmethyl)-1H-1,2,4-triazol-4(5H)-yl)phenyl)-2-(4-(3-isopropyl-1,2,4-oxadiazol-5-yl)piperidin-1-yl)nicotinonitrile] | 130.8 | 2.6 | 3.8 |  |
| CC(C)c1nc(C2CCN(c3ncc(-c4ccc(-n5cnn(CN6CCCC6)c5=O)c(F)c4)cc3C#N)CC2)no1 [Example 68] | 130.8 | 2.6 | 3.8 |  |
| CC(C)c1nc(C2CCN(c3ncc(-c4ccc(-n5cnn(CC(N)=O)c5=O)cc4)cc3C#N)CC2)no1 [Example 72, 2-(4-(4-(5-cyano-6-(4-(5-isopropyl-1,2,4-oxadiazol-3-yl)piperidin-1-yl)pyridin-3-yl)phenyl)-5-oxo-4,5-dihydro-1H-1,2,4-triazol-1-yl)acetamide] |  |  |  | 16.5 |
